Measurements as given in patent US8410139B2, “Prodrugs of a piperidinyl derivative as modulators of chemokine receptor activity” (Bristol-Myers Squibb Company, priority 2009, dated 2013).
In brackets after ≈: the same amount, converted by molar mass. Read-outs that look alike come from different tables or passages of the source.

How the values were obtained:
[1] = Thermodynamic equilibrium aqueous solubility assay; type: physicochemical; conditions: thermodynamic from solid; for solubility thermodynamic: aqueous solvent, read-out: Aq. sol., mg/mL (pH)
Procedure: Thermodynamic Equilibrium Aqueous Solubility Assay
The calibration standard is prepared by accurately weighing 0.5-0.7 mg of sample in 5 ml of methanol. If the material is not fully soluble in methanol, other solvents such as DMSO or mixed solvents will be used.
*The calibration standard is typically prepared fresh immediately before the start of the assay. A two-point calibration curve should be used to determine the concentration of the final solution. A serial dilution is performed on the standard solution.
The final saturated solution is prepared by adding 1.0 ml of the appropriate aqueous solvent to the remaining portion of material (˜1 mg/l ml) into a 1 dram vial. The solution is sonicated and vortexed for ˜30 seconds. The sample solution is placed on an orbiter that continually agitates the sample solutions for 15-24 hours at room temperature. The final saturated solution is then transferred to a 1.5 ml Eppendorf tube and centrifuged for ˜2 min. at 10000 rpms. The supernatant from the saturated solution is transferred to a glass HPLC vial without filtering since the 1.5 mL volume is insufficient to saturate a syringe filter. This sample preparation procedure nullifies the effects of non-specific binding to the filtering apparatus.
The standards and sample are analyzed by HPLC using either UV/Vis diode array or variable wavelength detection. Typical quantitation wavelengths are 210 or 254 nm; detection wavelength can be individually customized to optimize sensitivity. In addition to UV detection, mass spectrometry detection is recommended if available in order to confirm the identity of the HPLC-UV peak of interest.
Dilutions of aqueous test solutions are performed if HPLC-UV peak is beyond the linear portion of the standard calibration curve. Typical dilutions include 100 ul/900 ul (×10) or 500 ul/500 ul (2×), as required.
HPLC grade solvents are employed.

[2] = Solution stability assay (pH 1.0 and pH 7.4, 37° C.); type: physicochemical
Procedure: Acetonitrile Stock Solution: Prepare an Acetonitrile Stock Solution of the prodrug by dissolving 1.5-2.0 mg of accurately weighted compound in 5.0 mL of acetonitrile in 5 mL volumetric flask.
(§1) pH 7.4 Buffer Working Solution: Prepare a pH 7.4 Buffer working Solution of drug by adding 1.5 mL of the Acetonitrile Stock Solution to 3.5 mL of stability buffer in a 20 mL scintillation vial, mix very well. Using a 3 mL syringe withdraw ˜3 mL of solution and filter using the Gelman 0.45 μm syringe filter into a clean 1.5 mL LC vial. This filtered solution will be used to evaluate the prodrug degradation throughout the course of the study. Target concentration: 90-120 μg/mL (70% Aqueous: 30% Acetonitrile)
as §1, with “1.0 Acidic” for “7.4 Buffer”, “pH1.0 Working” for “pH 7.4 Buffer working”
Following the sample preparation procedure described above a single sample (n=1) is prepared for each pH condition. The samples were then placed in an HPLC autosampler maintained at 37° C. and samples were analyzed over a 24 hr period. Prodrug remaining (%) is reported relative to the initial peak area (t=0 h). In cases where a conversion to parent half-life could be calculated, a t1/2 was generated. Confirmation of the conversion to parent from the prodrug was obtained by LCMS and HPLC analysis of the final timepoint samples.
Typical LC parameters are shown below:
• HPLC System: HP1100 Series, Hewlett Packard., Heated autosampler • Analytical column. Synergi 4u Hydro C18, 4.6 mm×5.0 cm, Phenomenex • Column temperature: 40° C. • Autosampler temp: 37° C. • Flow rate: 1.0 mL/min • Injection Volume: 10 μL • Mobile Phase: A: Acetonitrile • B: 0.1% Phosphoric acid in water • Run Time: 14.0 minutes • Typical LCMS parameters are shown below: • LC-MS System: Surveyor HPLC system, ThermoFinnigan LCQ Deca XP Max (Ion trap) • Analytical column. Synergi 4u Hydro C18, 4.6 mm×5.0 cm, Phenomenex • Column temperature: 40° C. • Autosampler temp: 22° C. • Flow rate: 1.0 mL/min • Injection Volume: 5 […] • Mobile Phase: A: 95% Acetonitrile/5% 20 mM Ammonium Acetate • B: 5% Acetonitrile/95% 20 mM Ammonium Acetate • LCQ Parameters • Sheath Flow Rate: 81.64 • Aux/Sweep Flow Rate: 19.01 • Current (uA): 10.89 • Voltage (kV): 5.00 • Capillary©: 348.10 • Capillary Voltage (V): 30.44

[3] = pH 1, conversion of the prodrug to compound 1, 37° C., read-out: Aq. Stability half-life (pH 1/7.4) Hrs (converted)
[4] = pH 7.4, conversion of the prodrug to compound 1, 37° C., read-out: Aq. Stability half-life (pH 1/7.4) Hrs (converted)

solubility ([1]; aqueous buffer, pH 6.6 buffer)	half-life ([2]; pH 1, parent compound, read-out: chemical stability half-life (converted))	half-life ([2]; pH 7.4, parent compound, read-out: chemical stability half-life (converted))	solubility thermodynamic ([1]; pH 7.4, aqueous buffer)	half-life [2, 3]	half-life [2, 4]	solubility thermodynamic ([1]; pH 6.5, aqueous buffer)	Compound
			> 16 mg/mL	> 22 h	> 22 h		CC(C)[C@@H](NC(=O)NCC(C)(C)OC(=O)CS(=O)(=O)O)C(=O)N1CC[C@](O)(c2ccc(Cl)cc2)C(C)(C)C1 [Example 21]
			< 0.007 mg/mL	> 22 h	> 22 h		CCOC(=O)CCC(=O)OC(C)(C)CNC(=O)N[C@@H](C(=O)N1CC[C@](O)(c2ccc(Cl)cc2)C(C)(C)C1)C(C)C [Example 17]
				> 22 h	> 22 h	1.12 mg/mL (≈ 1850 µM)	CC(C)[C@@H](NC(=O)NCC(C)(C)OC(=O)C(N)CS(=O)(=O)O)C(=O)N1CC[C@](O)(c2ccc(Cl)cc2)C(C)(C)C1 (stereo partly shown) [Example 32]
				44 h	> 22 h	> 7 mg/mL	CC(C)[C@@H](NC(=O)NCC(C)(C)OC(=O)CCS(=O)(=O)O)C(=O)N1CC[C@](O)(c2ccc(Cl)cc2)C(C)(C)C1 [Example 22]
				100 h	30.3 h	0.18 mg/mL (≈ 324 µM)	CC(O)COC(=O)OC(C)(C)CNC(=O)N[C@@H](C(=O)N1CC[C@](O)(c2ccc(Cl)cc2)C(C)(C)C1)C(C)C (stereo partly shown) [Example 35]
				81 h	> 22 h	4.8 mg/mL (≈ 7920 µM)	CC(C)[C@@H](NC(=O)NCC(C)(C)OC(=O)CCOP(=O)(O)O)C(=O)N1CC[C@](O)(c2ccc(Cl)cc2)C(C)(C)C1 [Example 29]
				> 22 h	> 22 h	0.08 mg/mL (≈ 144 µM)	CC(C)[C@@H](NC(=O)NCC(C)(C)OC(=O)CCC(=O)O)C(=O)N1CC[C@](O)(c2ccc(Cl)cc2)C(C)(C)C1 [Example 19]
				> 22 h	> 22 h	> 1.6 mg/mL	CCC(O)CC(=O)OCOC(=O)OC(C)(C)CNC(=O)N[C@@H](C(=O)N1CC[C@](O)(c2ccc(Cl)cc2)C(C)(C)C1)C(C)C (stereo partly shown) [Example 33]
			> 0.32 mg/mL	16.6 h	73 h		CC(C)[C@@H](NC(=O)NCC(C)(C)O)C(=O)N1CC[C@](OCOC(=O)[C@@H](C)O)(c2ccc(Cl)cc2)C(C)(C)C1 [Example 25]
				61 h	> 22 h	> 3.3 mg/mL	CC(OP(=O)(O)O)C(=O)OC(C)(C)CNC(=O)N[C@@H](C(=O)N1CC[C@](O)(c2ccc(Cl)cc2)C(C)(C)C1)C(C)C (stereo partly shown) [Example 31]
			0.059 mg/mL (≈ 104 µM)	> 22 h	> 22 h		COC(=O)CCC(=O)OC(C)(C)CNC(=O)N[C@@H](C(=O)N1CC[C@](O)(c2ccc(Cl)cc2)C(C)(C)C1)C(C)C [Example 18]
				36 h	> 22 h	0.5 mg/mL (≈ 899 µM)	CC(O)C(=O)OCO[C@]1(c2ccc(Cl)cc2)CCN(C(=O)[C@H](NC(=O)NCC(C)(C)O)C(C)C)CC1(C)C (stereo partly shown) [Example 27]
				97 h	> 22 h	> 1.2 mg/mL	CC(COC(=O)OC(C)(C)CNC(=O)N[C@@H](C(=O)N1CC[C@](O)(c2ccc(Cl)cc2)C(C)(C)C1)C(C)C)OP(=O)(O)O (stereo partly shown) [Example 36]
				33 h	> 22 h	0.31 mg/mL (≈ 589 µM)	CC(O)C(=O)OC(C)(C)CNC(=O)N[C@@H](C(=O)N1CC[C@](O)(c2ccc(Cl)cc2)C(C)(C)C1)C(C)C (stereo partly shown) [Example 30]

Continued, molecule first:

Compound	solubility ([1]; aqueous buffer, pH 6.6 buffer)	half-life ([2]; pH 1, parent compound, read-out: chemical stability half-life (converted))	half-life ([2]; pH 7.4, parent compound, read-out: chemical stability half-life (converted))	solubility thermodynamic ([1]; pH 7.4, aqueous buffer)	half-life [2, 3]	half-life [2, 4]	solubility thermodynamic ([1]; pH 6.5, aqueous buffer)
CC(C)[C@@H](NC(=O)NCC(C)(C)O)C(=O)N1CC[C@](O)(c2ccc(Cl)cc2)C(C)(C)C1 [Compound 1, 1-((R)-1-((S)-4-(4-chlorophenyl)-4-hydroxy-3,3-dimethylpiperidin-1-yl)-3-methyl-1-oxobutan-2-yl)-3-(2-hydroxy-2-methylpropyl)urea]	47 µg/mL (≈ 104 µM)	30 h	> 22 h				
CC(C)[C@@H](NC(=O)NCC(C)(C)OC(=O)OCOC(=O)C1(N)CC1)C(=O)N1CC[C@](O)(c2ccc(Cl)cc2)C(C)(C)C1 [Example 14]				0.18 mg/mL (≈ 295 µM)	49 h	107 h	
CCC(=O)OC(C)(C)CNC(=O)N[C@@H](C(=O)N1CC[C@](O)(c2ccc(Cl)cc2)C(C)(C)C1)C(C)C [Example 5, 1-(3-((R)-1-((S)-4-(4-chlorophenyl)-4-hydroxy-3,3-dimethylpiperidin-1-yl)-3-methyl-1-oxobutan-2-yl)ureido)-2-methylpropan-2-yl propionate]					25 h	> 22 h	0.04 mg/mL (≈ 78.4 µM)
CC(C)[C@@H](NC(=O)NCC(C)(C)OC(=O)OCOC(=O)Cc1ccc(OP(=O)(O)O)cc1)C(=O)N1CC[C@](O)(c2ccc(Cl)cc2)C(C)(C)C1 [Example 9]					25 h	72 h	1.6 mg/mL (≈ 2160 µM)
CC(=O)OCOC(=O)OC(C)(C)CNC(=O)N[C@@H](C(=O)N1CC[C@](O)(c2ccc(Cl)cc2)C(C)(C)C1)C(C)C [Example 15]				0.022 mg/mL (≈ 38.6 µM)	> 22 h	> 22 h	
CC(C)[C@@H](NC(=O)NCC(C)(C)OC(=O)OCOC(=O)/C=C/C(=O)O)C(=O)N1CC[C@](O)(c2ccc(Cl)cc2)C(C)(C)C1 [Example 6, (R,E)-3-((S)-4-(4-chlorophenyl)-4-hydroxy-3,3-dimethylpiperidine-1-carbonyl)-2,8,8-trimethyl-5,10,14-trioxo-9,11,13-trioxa-4,6-diazaheptadec-15-en-17-oic acid]					61 h	49 h	2.2 mg/mL (≈ 3510 µM)
CC(C)[C@@H](NC(=O)NCC(C)(C)OCOP(=O)(O)O)C(=O)N1CC[C@](O)(c2ccc(Cl)cc2)C(C)(C)C1 [Example 10]					< 1 h		
CC(C)[C@@H](N)C(=O)OCOC(=O)OC(C)(C)CNC(=O)N[C@@H](C(=O)N1CC[C@](O)(c2ccc(Cl)cc2)C(C)(C)C1)C(C)C [Example 12]					82 h	0.3 h	
CC(=O)OC(C)(C)CNC(=O)N[C@@H](C(=O)N1CC[C@](O)(c2ccc(Cl)cc2)C(C)(C)C1)C(C)C [Example 4, 1-(3-((R)-1-((S)-4-(4-chlorophenyl)-4-hydroxy-3,3-dimethylpiperidin-1-yl)-3-methyl-1-oxobutan-2-yl)ureido)-2-methylpropan-2-yl acetate]					29 h	> 22 h	0.03 mg/mL
CC(C)[C@@H](NC(=O)NCC(C)(C)OC(=O)OCOC(=O)C(C)(C)N)C(=O)N1CC[C@](O)(c2ccc(Cl)cc2)C(C)(C)C1 [Example 13]					10.1 h	0.25 h	
CC(C)[C@@H](NC(=O)NCC(C)(C)OC(=O)OCOP(=O)(O)O)C(=O)N1CC[C@](O)(c2ccc(Cl)cc2)C(C)(C)C1 [Example 11]					107 h	0.3 h	
